Laboratory results as given in article PMC12152171, “Dual-mode recognition of tRNA^Pro isoacceptors by Toxoplasma gondii Prolyl-tRNA synthetase” (EMBO Reports, 2025).
Where two headings read alike, the source gives them in different places.

Assays:
[1] = molecular target: T1, Toxoplasma gondii prolyl-tRNA synthetase (TgProRS) (Toxoplasma gondii, UniProt S8G8I1); assay: [3H]-proline aminoacylation inhibition assay with cytosolic tRNA(Pro) (TgtRNAn^Pro); IC50 […] with apicoplast TgtRNAa^Pro; format: biochemical
T1 construct: gene TGME49_219850; lacking OTS and ProXp-ala (amino acid residues 1–333 removed), N-terminal His10 tag

[2] = molecular target: T1, Toxoplasma gondii prolyl-tRNA synthetase (TgProRS); assay: as above; format: biochemical; remark: listed apart in the source

T1 sequence (S8G8I1 entry or part of it): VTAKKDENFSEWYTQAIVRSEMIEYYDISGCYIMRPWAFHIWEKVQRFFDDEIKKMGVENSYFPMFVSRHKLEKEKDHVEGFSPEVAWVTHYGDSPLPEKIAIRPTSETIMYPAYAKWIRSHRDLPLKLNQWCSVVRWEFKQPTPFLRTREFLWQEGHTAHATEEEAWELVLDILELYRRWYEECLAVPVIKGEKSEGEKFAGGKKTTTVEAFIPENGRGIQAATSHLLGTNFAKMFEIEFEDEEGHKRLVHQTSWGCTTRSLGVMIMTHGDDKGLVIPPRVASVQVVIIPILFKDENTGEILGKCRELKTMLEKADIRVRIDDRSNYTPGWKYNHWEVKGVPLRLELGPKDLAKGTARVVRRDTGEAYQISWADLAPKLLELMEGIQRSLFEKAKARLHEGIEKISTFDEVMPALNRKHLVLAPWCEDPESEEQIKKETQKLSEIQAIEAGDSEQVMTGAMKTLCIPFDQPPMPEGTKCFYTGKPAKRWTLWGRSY

Question: How did the IC50 [1] turn out when O=C(C[C@H]1NCCC[C@@H]1O)Cn1cnc2cc(Br)c(Cl)cc2c1=O (racemic) [HF, Halofuginone] was run?
Answer: The IC50 was 0.005 µM.

Question: O=C(O)[C@@H]1CCN1 [A2C, Azetidine-2-carboxylic acid] was tested. Which IC50 [2] did it give?
Answer: Its IC50 is 1300 µM.
